This is an account of results in paper PMC10252614 (International Journal of Molecular Sciences, 2023).

One data set concerns the target T1, human BChE (hBChE) (Homo sapiens, UniProt P06276).
T1 construct: made in house
The data set is described as follows: hBChE inhibition, modified Ellman's method. Type of data set: biochemical. Conditions: 10^-6 M. How it is done: (§1) N-Methylpropargylamine-quinazolines were tested for their inhibitory potency against human AChE (hAChE) and human BChE (hBChE) enzymes using the modified spectrophotometric method of Ellman et al..
(§2) The human recombinant BChE and AChE were prepared at the Department of Toxicology and Military Pharmacy (Faculty of Military Health Sciences, Hradec Kralove, Czech Republic). 5,5′-dithiobis(2-nitrobenzoic acid) (Ellman’s reagent, DTNB), phosphate buffer (PB, pH 7.4), acetylthiocholine (ATC) and butyrylthiocholine (BTC), were purchased from Sigma-Aldrich, Prague, Czech Republic. For measuring purposes, polystyrene Nunc 96-well microplates with a flat-bottom shape (ThermoFisher Scientific, Waltham, MA, USA) were utilized. All the assays were carried out in 0.1 M KH2PO4/K2HPO4 buffer, pH 7.4. Enzyme solutions were prepared at 2.0 units/mL in 2 mL aliquots. The assay medium consisted of a 0.1 M phosphate buffer (pH 7.4), 0.01 M DTNB, the enzyme, and 0.01 M substrate (ATC/BTC iodide solution). Concentration 1 µM was tested and the % of inhibition was calculated. Tested compounds were pre-incubated for 5 min. The reaction was started by immediate addition of 20 μL of the substrate. […] Each concentration was assayed in triplicate. Software GraphPad Prism 5 (San Diego, CA, USA) was used for the statistical data evaluation.
(In general: In Ellman's method for cholinesterases, released thiocholine reacts with DTNB.)

For a further data set, the target named is T2, human AChE (hAChE) (Homo sapiens, UniProt P22303).
T2 construct: made in house
T2 sequence (P22303 32-614): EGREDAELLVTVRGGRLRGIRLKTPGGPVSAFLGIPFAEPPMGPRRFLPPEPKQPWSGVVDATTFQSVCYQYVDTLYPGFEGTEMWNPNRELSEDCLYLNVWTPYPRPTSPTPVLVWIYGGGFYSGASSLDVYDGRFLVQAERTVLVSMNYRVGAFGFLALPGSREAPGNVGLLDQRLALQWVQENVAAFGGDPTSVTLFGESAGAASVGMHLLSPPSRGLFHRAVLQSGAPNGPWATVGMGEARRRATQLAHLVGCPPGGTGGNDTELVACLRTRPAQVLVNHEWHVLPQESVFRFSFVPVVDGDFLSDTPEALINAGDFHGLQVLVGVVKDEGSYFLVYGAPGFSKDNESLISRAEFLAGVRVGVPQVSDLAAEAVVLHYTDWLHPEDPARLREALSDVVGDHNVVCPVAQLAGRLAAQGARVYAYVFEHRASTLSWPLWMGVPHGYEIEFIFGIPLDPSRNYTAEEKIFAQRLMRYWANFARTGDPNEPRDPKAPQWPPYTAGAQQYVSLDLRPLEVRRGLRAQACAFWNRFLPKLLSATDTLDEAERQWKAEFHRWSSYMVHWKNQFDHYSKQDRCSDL
The data set can be described thus: hAChE inhibition, modified Ellman's method. Type of data set: biochemical. Conditions: read-out: % of AChE inhibition. The procedure:
as §1, §2

Another data set is described as follows: in vitro. The note with it: human, undifferentiated SH-SY5Y cells.
Data set [1] has as its system differentiated SH-SY5Y cells. The data set is described as follows: MTT viability of differentiated SH-SY5Y. Type of data set: cell-based, human. Conditions: concentration equal to IC50 from undifferentiated model, 24 h.
Procedure: Then, the differentiated SH-SY5Y cells were treated with concentrations corresponding to the IC50 values obtained from the cytotoxicity measurement using undifferentiated SH-SY5Y cells. Cells were exposed to a tested compound for 24 h. Then, the medium was replaced by a medium containing 10 μM of MTT and cells were allowed to produce formazan for another, approximately 3 h under surveillance. Thereafter, the medium was aspirated and purple crystals of MTT formazan were dissolved in 100 μL DMSO under shaking. Cell viability was assessed spectrophotometrically by the amount of formazan produced. Absorbance was measured at 570 nm with 650 nm reference wavelength on Spark (Tecan Group Ltd., Männedorf, Switzerland). The IC50 value was then calculated from the control-subtracted triplicates using non-linear regression (four parameters) of GraphPad Prism 9 software. Final IC50 and SEM values were obtained as a mean of three.
Data set [2] in a line: PAMPA prediction of BBB permeability. In kind it is in vitro ADME. The procedure:
The assay validation was performed using standard compounds whose CNS status is experimentally known from in vivo conditions.
PAMPA (the parallel artificial membrane-permeability assay) is a high-throughput screening tool applicable for prediction of the passive transport of potential drugs across the blood–brain barrier (BBB). In this study, it was used as a non-cell-based in vitro assay carried out in a coated 96-well membrane filter. The filter membrane of the donor plate was coated with PBL (Polar Brain Lipid, Avanti, USA) in dodecane (4 µL of 20 mg/mL PBL in dodecane) and the acceptor well was filled with 300 µL of PBS (pH 7.4; VA). The tested compounds were dissolved first in DMSO and subsequently diluted with PBS (pH 7.4) to final concentrations of 50–100 μM in the donor wells. […] About 300 µL of the donor solution was added to the donor wells (VD) and the donor filter plate was carefully put on the acceptor plate so that the coated membrane was “in touch” with both the donor solution and acceptor buffer. In principle, the test compound diffused from the donor well through the lipid membrane (Area = 0.28 cm^2) to the acceptor well. The concentration of the drug in both the donor and acceptor wells were assessed after 3, 4, 5, and 6 h of incubation in quadruplicate using the UV plate reader Spark (Tecan Group Ltd., Männedorf, Switzerland) at the maximum absorption wavelength of each compound. In addition, the solution of the theoretical compound concentration, simulating the equilibrium state established if the membrane were ideally permeable, was prepared and assessed as well.

The target of another data set is T3, hMAO-B (Homo sapiens, UniProt P27338).
T3 construct: purchased Merck (Prague, Czech Republic)
T3 sequence (P27338 1-520): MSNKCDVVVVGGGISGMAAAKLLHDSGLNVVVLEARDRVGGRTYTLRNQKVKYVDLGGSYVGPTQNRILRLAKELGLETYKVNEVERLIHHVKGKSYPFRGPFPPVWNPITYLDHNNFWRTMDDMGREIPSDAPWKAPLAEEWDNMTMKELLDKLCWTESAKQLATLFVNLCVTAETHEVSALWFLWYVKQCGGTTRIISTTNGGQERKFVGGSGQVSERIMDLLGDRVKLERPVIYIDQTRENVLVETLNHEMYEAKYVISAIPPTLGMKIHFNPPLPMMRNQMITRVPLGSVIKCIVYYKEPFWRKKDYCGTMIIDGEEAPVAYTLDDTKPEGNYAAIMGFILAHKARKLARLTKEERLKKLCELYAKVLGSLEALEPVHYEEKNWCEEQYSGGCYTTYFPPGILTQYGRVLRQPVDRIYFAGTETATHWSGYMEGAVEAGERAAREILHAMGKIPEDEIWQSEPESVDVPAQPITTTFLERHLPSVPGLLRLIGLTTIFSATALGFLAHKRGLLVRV
The data set can be described thus: in vitro inhibition of hMAO-B, kynuramine fluorescence assay. Type of data set: biochemical. The procedure: The hMAO-A and hMAO-B enzymes were purchased from Merck (Prague, Czech Republic). […] The mixture was pre-incubated at 37 °C for 15 min and subsequently substrate kynuramine was added to the final concentration of 100 µM. The final volume of reaction mixture was 0.1 mL. The whole reaction mixture was incubated at 37 °C for 30 min. The reaction was stopped by the addition of 20 µL 4M NaOH.

Another data set deals with SH-SY5Y cells. The data set is described as follows: dehydrogenase activity, WST-1 test. In kind it is cell-based, human. The note with it: 100 µM, mean ± SD. The procedure:
Next, we tested the effects of the compounds on intracellular dehydrogenase activity and glutathione levels. […] To evaluate the effects of the compounds on cells, we measured total intracellular dehydrogenase activity as a marker of cellular viability and glutathione levels for evaluation of oxidative stress (Table 6).
Dehydrogenase activity was evaluated by WST-1 test (Roche, Munich, Germany). The WST-1 test measures the activity of intra- and extra-mitochondrial dehydrogenases. […] The change of absorbance was measured by spectrophotometer at the wavelength of 440 nm using SPARK microplate reader (Tecan, Austria) while incubated at 37 °C. The dehydrogenase activity was expressed as the percentage of total cellular dehydrogenase activity relative to that in the control cells (control = 100%).

Another data set addresses T4, GluN1/GluN2B receptor (Homo sapiens, UniProt Q05586+Q13224).
T4 construct: expressed in transfected cells; host or cells: HEK293
The data set can be described thus: whole-cell patch-clamp on HEK293 cells expressing GluN1/GluN2B NMDAR. Type of data set: cell-based. The note with it: HEK293, 10 µM, −60 mV, ± SEM (n = 5–6), 100% = full inhibition; read-out: Relative inhibition (RI) of GluN1/GluN2B NMDAR. The procedure:
We tested the derivatives by the whole-cell patch-clamp method at a concentration of 10 μM under steady-state conditions in the presence of the saturating concentrations of NMDAR (co-)agonists (L-glutamate and glycine). […] Whole-cell patch-clamp recordings were performed using an Axopatch 200B amplifier (Molecular Devices, LLC., San Jose, CA, USA) at a holding membrane potential of −60 mV. HEK293 cells were co-transfected with DNA vectors encoding human versions of the GluN1-4a (GluN1) and GluN2B subunits and green fluorescent protein (GFP) in a 1:1:1 ratio using 0.9 μL PolyMag reagent (OZ Biosciences SAS, Marseille, France) in 50 μL Opti-MEM I [56, 57]. After 15 min on a magnetic plate, HEK293 cells were trypsinized and resuspended in Opti-MEM I medium containing 1% FBS, 2 mM MgCl2 and 3 mM kynurenic acid (to reduce cell death caused by activation of NMDARs). Electrophysiological measurements were performed 24–48 h after completion of transfection at room temperature. The extracellular recording solution (ECS) contained (in mM): 160 NaCl, 2.5 KCl, 10 HEPES, 10 D-glucose, 0.2 EDTA, and 0.7 CaCl2 (pH 7.3 with NaOH). […] A microprocessor-controlled rapid perfusion system with a time constant for solution exchange around the recorded cell of ~20 ms was used. Currents were low-pass filtered at 2 kHz using an eight-pole Bessel filter, digitized at 5 kHz, and recorded using the pCLAMP 10 program (Molecular Devices, LLC., San Jose, CA, USA). The co-agonist glycine (100 µM) was applied throughout the recording, and the agonist L-glutamate (1 mM) was used to elicit responses of GluN1/GluN2B receptors.
Background: The patch-clamp technique gives a direct electrical read-out from membranes.

T1 sequence (P06276 29-602): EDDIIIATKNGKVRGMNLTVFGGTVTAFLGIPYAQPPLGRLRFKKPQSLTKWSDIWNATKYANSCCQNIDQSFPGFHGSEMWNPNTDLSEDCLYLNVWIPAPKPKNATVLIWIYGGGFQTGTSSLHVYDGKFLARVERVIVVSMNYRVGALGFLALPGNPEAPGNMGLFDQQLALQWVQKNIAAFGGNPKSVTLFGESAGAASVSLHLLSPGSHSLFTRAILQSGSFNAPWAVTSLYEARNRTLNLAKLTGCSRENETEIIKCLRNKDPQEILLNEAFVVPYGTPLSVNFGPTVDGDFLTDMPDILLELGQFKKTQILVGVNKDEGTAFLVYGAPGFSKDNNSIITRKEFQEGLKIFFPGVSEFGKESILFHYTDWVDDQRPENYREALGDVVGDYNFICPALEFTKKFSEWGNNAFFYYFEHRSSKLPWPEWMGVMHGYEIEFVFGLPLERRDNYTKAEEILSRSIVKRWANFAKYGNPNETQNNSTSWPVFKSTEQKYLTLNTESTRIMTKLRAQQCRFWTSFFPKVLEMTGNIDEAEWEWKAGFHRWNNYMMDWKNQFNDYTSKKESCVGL
T4 sequence (Q13224 27-1484, other chains not shown): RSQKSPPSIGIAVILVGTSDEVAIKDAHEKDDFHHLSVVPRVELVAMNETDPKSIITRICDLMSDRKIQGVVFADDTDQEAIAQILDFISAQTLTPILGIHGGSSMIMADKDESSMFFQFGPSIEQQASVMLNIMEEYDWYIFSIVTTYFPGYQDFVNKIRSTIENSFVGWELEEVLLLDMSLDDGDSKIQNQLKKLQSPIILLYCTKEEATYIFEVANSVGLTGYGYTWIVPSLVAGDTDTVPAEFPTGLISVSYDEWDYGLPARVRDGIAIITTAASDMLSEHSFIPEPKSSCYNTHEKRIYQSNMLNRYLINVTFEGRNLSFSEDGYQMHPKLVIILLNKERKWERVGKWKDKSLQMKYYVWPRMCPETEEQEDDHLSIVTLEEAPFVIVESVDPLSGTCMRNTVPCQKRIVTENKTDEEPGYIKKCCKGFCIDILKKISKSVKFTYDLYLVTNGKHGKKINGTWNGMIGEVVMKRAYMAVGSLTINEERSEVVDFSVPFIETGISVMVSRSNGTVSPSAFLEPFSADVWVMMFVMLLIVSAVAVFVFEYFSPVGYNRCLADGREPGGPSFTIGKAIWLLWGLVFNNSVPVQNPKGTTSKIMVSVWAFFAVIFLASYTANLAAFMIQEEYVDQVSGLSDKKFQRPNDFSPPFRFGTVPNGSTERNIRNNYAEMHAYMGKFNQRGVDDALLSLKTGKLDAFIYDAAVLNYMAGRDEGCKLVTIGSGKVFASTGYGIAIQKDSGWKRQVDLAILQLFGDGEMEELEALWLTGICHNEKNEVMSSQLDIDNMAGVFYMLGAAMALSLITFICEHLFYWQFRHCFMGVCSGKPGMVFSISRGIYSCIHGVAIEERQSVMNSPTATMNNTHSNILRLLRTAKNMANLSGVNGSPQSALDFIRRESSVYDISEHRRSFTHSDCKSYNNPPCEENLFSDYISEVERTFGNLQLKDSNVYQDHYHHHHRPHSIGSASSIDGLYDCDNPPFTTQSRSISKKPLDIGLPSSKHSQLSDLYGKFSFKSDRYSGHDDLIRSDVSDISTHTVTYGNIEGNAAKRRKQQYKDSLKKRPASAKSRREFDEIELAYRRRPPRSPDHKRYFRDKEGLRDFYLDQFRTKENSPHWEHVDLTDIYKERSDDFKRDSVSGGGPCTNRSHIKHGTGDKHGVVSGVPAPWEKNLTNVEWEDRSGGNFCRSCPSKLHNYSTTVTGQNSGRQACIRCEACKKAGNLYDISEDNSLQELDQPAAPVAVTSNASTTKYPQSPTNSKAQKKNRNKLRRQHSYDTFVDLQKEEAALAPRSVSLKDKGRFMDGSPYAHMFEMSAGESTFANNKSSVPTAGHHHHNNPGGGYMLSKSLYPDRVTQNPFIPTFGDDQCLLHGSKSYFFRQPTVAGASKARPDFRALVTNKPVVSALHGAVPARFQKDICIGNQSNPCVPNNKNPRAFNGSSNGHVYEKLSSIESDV

For orientation: IC50 means the concentration that inhibits the measured activity by half. A higher IC50 goes with a need for much substance. In the case of `C#CCN(C)c1nc(NCCCC)c2ccc(Cl)cc2n1` [II-6e, N4-butyl-7-chloro-N2-methyl-N2-(prop-2-yn-1-yl)quinazoline-2,4-diamine], the inhibition at 1 µM is 0% against human BChE (hBChE) and 9% on human AChE (hAChE). The IC50 at 24 h in the data set “in vitro” was determined as 67.1 ± 3.81 µM. Moreover, in data set [1], the “effect on viability of differentiated SH-SY5Y (in words)” value is recorded as “increased toxicity”. Besides, the “BBB penetration by PAMPA (in words)” value in data set [2] is “did not penetrate the artificial barrier”. Also, the “CNS (+/−)” value in data set [2] (PAMPA class) is reported as “CNS (−) (CNS (−) (low BBB permeation predicted): Pe (×10^−6 cm s^−1) < 2.0)”. For the same compound, the Papp in data set [2] (PAMPA, PBS pH 7.4, read-out: Pe ± SEM) is 0.9 ± 0.43 ×10⁻⁶ cm/s. Further, it took 3.65 ± 0.14 µM to reach half-maximal inhibition on hMAO-B (IC50). At hMAO-B, the “selectivity profile hMAO-A vs hMAO-B (in words)” value is listed as “hMAO-B selective inhibitors”. The “Dehydrogenase Activity (% of Control)” value is listed as 63 ± 9 % of Control with SH-SY5Y cells (6 h) and 48 ± 9 % of Control in the data set with SH-SY5Y cells (24 h). Further, the inhibition at 10 µM at GluN1/GluN2B receptor worked out at 33.8 ± 2.56%.
